Source: article PMC6271220, “Synthesis, Molecular Docking and Biological Evaluation of Glycyrrhizin Analogs as Anticancer Agents Targeting EGFR” (Molecules, 2014)

Key:
[1] = tested on: HepG2 (hepatocellular carcinoma); experiment: CCK-8 anti-proliferative assay, HepG2; format: cell-based; details: Homo sapiens, CCK-8 assay, average of three independent experiments in triplicate
Method: (§1) CCK8 is much more convenient and helpful than MTT for analyzing cell proliferation, because it can be reduced to soluble formazan by dehydrogenase in mitochondria and has little toxicity to cells. Cell proliferation was determined using CCK8 dye (BeyotimeInst Biotech, Shanghai, China) according to manufacturer’s instructions. Briefly, 1–5 × 10^3 cells per well were seeded in a 96-well plate, grown at 37 °C for 12 h, Subsequently, cells were treated with compounds at increasing concentrations in the presence of 10% FBS for 24 or 48 h. After 10 µL CCK8 dye was added to each well, cells were incubated at 37 °C for 1–2 h and Plates were read in a Victor-V multilabel counter (Perkin-Elmer, Waltham, MA, USA) using the default europium detection protocol. Percent inhibition or IC50 values of compounds were calculated by comparison with DMSO-treated control wells.

[2] = tested on: HeLa (cervix of uterus adenocarcinoma); experiment: CCK-8 anti-proliferative assay, HeLa; format: cell-based; details: Homo sapiens, CCK-8 assay, average of three independent experiments in triplicate
Method: as §1

A549 (lung carcinoma) = experiment: CCK-8 anti-proliferative assay, A549; format: cell-based; details: Homo sapiens, CCK-8 assay, average of three independent experiments in triplicate
Method: as §1

EGFR = molecular target: T1, EGFR (Homo sapiens, UniProt P00533); experiment: EGFR kinase autophosphorylation assay (DELFIA/time-resolved fluorometry); format: biochemical; details: in vitro EGFR enzyme inhibition
T1 construct: EGFR cytoplasmic domain (EGFR-CD, amino acids 645–1186); (His)6 (N); made in house; host or cells: Sf-9 insect cells (baculovirus)
Method: A sequence that encodes (His)6 was located at the 5′ upstream to the EGFR sequences. Sf-9 cells were infected for 3 days for protein expression. Sf-9 cell pellets were solubilized at 0 °C in a buffer at pH 7.4 containing 50 mM HEPES, 10 mM NaCl, 1% Triton, 10 µM ammonium molybdate, 100 µM sodium vanadate, 10 µg/mL aprotinin, 10 µg/mL leupeptin, 10 µg/mL pepstatin, and 16 µg/mL benzamidine HCl for 20 min followed by 20 min centrifugation. Crude extract supernatant was passed through an equilibrated Ni-NTA superflow packed column and washed with 10 mM and then 100 mM imidazole to remove nonspecifically bound material. Histidine tagged proteins were eluted with 250 and 500 mM imidazole and dialyzed against 50 mM NaCl, 20 mM HEPES, 10% glycerol, and 1 µg/mL each of aprotinin, leupeptin and pepstatin for 2 h. The entire purification procedure was performed at 4 °C or on ice.
EGFR kinase assays were set up to assess the level of autophosphorylation based on DELFIA/Time-Resolved Fluorometry. All compounds were dissolved in 100% DMSO and diluted to the appropriate concentrations with 25 mM HEPES at pH 7.4. In each well, 10 µL compound was incubated with 10 µL (5 ng for EGFR) recombinant enzyme (1:80 dilution in 100 mM HEPES) for 10 min at room temperature. Then, 10 µL of 5 mM buffer (containing 20 mM HEPES, 2 mM MnCl2, 100 µM Na3VO4 and 1 mM DTT) and 20 µL of 0.1 mM ATP–50 mM MgCl2 were added for 1 h. Positive and negative controls were included in each plate by incubation of enzyme with or without ATP–MgCl2. At the end of incubation, liquid was aspirated, and plates were washed three times with wash buffer. A 75 µL (400 ng) sample of europium labeled anti-phosphotyrosine antibody was added to each well for another 1 h of incubation. After washing, enhancement solution was added and the signal was detected by Victor (Wallac Inc., Gaithersburg, MD, USA) with excitation at 340 nm and emission at 615 nm. The percentage of auto-phosphorylation inhibition by the compounds was calculated using the following formula: 100% − [(negative control)/(positive control − negative control)]. The IC50 was obtained from curves of percentage inhibition with eight concentrations of compound.

[3] = tested on: S180 (sarcoma tumer cell line); experiment: In vivo tumor xenograft model, S180 tumor-bearing mice; set-up: species or system Kunming mice; details: 60 mg/kg/day oral gavage, ten days; for Inhibition rate: from average tumor weights vs control
Method: (§2) Kunming mice (SPF, male or female, 20 ± 2 g) were purchased from the experimental animal center of China Pharmaceutical University. Animals were housed in a temperature (22 ± 2 °C) and relatively humidity (50%)-controlled room on a 12 h light/dark cycle, given free access to food and water, and acclimatized for at least one week prior to use. All the animal experiments were performed in accordance with the Regulations of the Experimental Animal Administration issued by the State Committee of Science and Technology of China.
(§3) Cell lines used for evaluation of the in vivo antitumor activity in this study included three tumor cell lines, namely S180 (sarcoma tumer cell line), HepG2 (liver carcinoma cell line), EAC (Ehrlich ascites carcinoma cell line). All of cell lines were purchased by the Shanghai Institutes for Biological Sciences, Chinese Academy of Sciences, and the cells were cultured in RPMI-1640 medium, which was supplemented with 10% heat-inactivated fetal bovine serum, 100 U/mL penicillin and 100 U/mL streptomycin and cultured in an atmosphere of 5% CO2 at 37 °C. Cells were collected for the experiments in the logarithmic growth phase.
(§4) To establish the tumor-bearing mouse model, the cell lines were harvested and inoculated subcutaneously into the right armpit region of the mice. On the 7th day, the tumor ascrites were obtained and washed with sterile PBS. Under sterile condition, the tumor ascrites were diluted with sterile nomal saline to 1 × 10^10 /L cell suspension. Tumor ascites were maintained in vivo in mice by transplantation of 0.2 mL of ascites (2 × 10^6 cells) from the infected mice to the non-infected mice.
(§5) Each Kunming mouse (male or female, weight 20 ± 2 g) were inoculated with seven-day-old ascrite (0.2 mL, 2 × 10^6 cells) subcutaneously into the right front armpit. 24 h after implantation of tumor cells, the mice were randomly divided into five test groups with 10 mice per group. Each mouse was weighed immediately after inoculation. The mice were treated by oral gavage with test samples (60 mg/kg/day) or normal saline (NS, 10 mL/kg) for ten days once daily. On day 11, the mice were sacrificed via cervical dislocation, and the mouse and tumor were excised and weighed for evaluating the tumor growth inhibition. The tumor inhibitory rate was calculated by the following formula: [drawing 5] (1) where Wcontrol and Wtreated were the average tumor weights of the control and treated mice, respectively. […] The effect of glycyrrhizin analogs on percentage increases in life span was calculated on the basis of mortality of the experimental mice: […]

[4] = tested on: HepG2 (liver carcinoma cell line); experiment: In vivo tumor xenograft model, HepG2 tumor-bearing mice; set-up: species or system Kunming mice; details: 60 mg/kg/day oral gavage, ten days; for Inhibition rate: from average tumor weights vs control
Method: as §2, §3, §4, §5

[5] = tested on: EAC (Ehrlich ascites carcinoma cell line); experiment: Survival of EAC tumor-bearing mice; format: in vivo, Kunming mice; details: for Survival time: control 16.40 ± 2.07 d; for Survival rate: percentage increase in life span vs control
Method: as §2, §3, §4, §5

T1 sequence (P00533 669-1210): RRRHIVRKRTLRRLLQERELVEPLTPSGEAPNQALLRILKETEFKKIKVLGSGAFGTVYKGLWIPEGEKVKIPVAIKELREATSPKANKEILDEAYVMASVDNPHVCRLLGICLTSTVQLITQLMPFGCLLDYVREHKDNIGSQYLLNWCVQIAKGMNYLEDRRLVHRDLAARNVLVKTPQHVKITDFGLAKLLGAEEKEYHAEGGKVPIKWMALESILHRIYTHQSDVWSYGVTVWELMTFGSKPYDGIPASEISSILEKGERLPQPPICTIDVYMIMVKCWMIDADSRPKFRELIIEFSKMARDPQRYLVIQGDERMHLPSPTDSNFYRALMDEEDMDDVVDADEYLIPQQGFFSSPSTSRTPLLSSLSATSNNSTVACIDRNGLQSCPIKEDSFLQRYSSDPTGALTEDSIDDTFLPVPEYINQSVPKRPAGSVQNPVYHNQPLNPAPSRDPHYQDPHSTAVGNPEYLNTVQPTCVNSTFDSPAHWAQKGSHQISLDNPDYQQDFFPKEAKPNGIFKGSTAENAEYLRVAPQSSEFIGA

Row | Structure (SMILES) | IC50 [1] [µM] | IC50 [2] [µM] | IC50 (A549 (lung carcinoma)) [µM] | IC50 (EGFR) [nM] | Body weight End [3] [g] | Tumor weight [3] [g] | Inhibition rate [3] [%] | Body weight End [4] [g] | Tumor weight [4] [g] | Inhibition rate [4] [%] | Survival time [5] [days] | Survival rate [5] [%]
1 | CC1(C)[C@@H](O[C@H]2O[C@H](C(=O)O)[C@@H](O)[C@H](O)[C@H]2O[C@@H]2O[C@H](C(=O)O)[C@@H](O)[C@H](O)[C@H]2O)CC[C@]2(C)[C@H]3C(=O)C=C4[C@@H]5C[C@@](C)(C(=O)O)CC[C@]5(C)CC[C@@]4(C)[C@]3(C)CC[C@@H]12 [18β-GA, Glycyrrhizin] | 63.6 | 18.9 | 51.9 | 92 | 24.48 ± 2.37 | 1.33 ± 0.67 | 30.4 | 26.94 ± 2.05 | 1.26 ± 0.65 | 35.4 | 19.40 ± 3.77 | 18.3
2 | C#Cc1cccc(Nc2ncnc3cc(OCCOC)c(OCCOC)cc23)c1 [Erlotinib, reference compound] | 0.12 | 0.2 | 0.13 |  |  |  |  |  |  |  |  | 
3 | CC1(C(=O)O)CCC2(C)CCC3(C)C(=CC(=O)C4C5(C)CCC(OC6OC(C(=O)O)C(O)C(O)C6OC6OC(C(=O)O)C(O)C(O)C6O)C(C)(C)C5CCC43C)C2C1 (stereo not drawn) [18α-GA, 18α-Glycyrrhizin] | 54.2 | 15.1 | 41.6 | 81 | 25.20 ± 1.11 | 1.29 ± 0.47 | 32.5 | 26.08 ± 1.26 | 1.22 ± 0.46 | 37.4 | 19.75 ± 3.08 | 20.4
4 | CC1(C)[C@@H](O[C@@H]2O[C@H](C(=O)O)[C@@H](O)[C@H](O)[C@H]2O)CC[C@]2(C)[C@H]3C(=O)C=C4[C@H]5C[C@@](C)(C(=O)O)CC[C@]5(C)CC[C@@]4(C)[C@]3(C)CC[C@@H]12 [18α-GAMG] | 6.67 | 7.43 | 15.8 | 28 | 25.25 ± 1.80 | 1.15 ± 0.50 | 39.8 | 27.02 ± 2.10 | 0.98 ± 0.43 | 49.7 | 23.85 ± 5.41 | 45.4
5 | CC1(C)[C@@H](O[C@@H]2O[C@H](C(=O)O)[C@@H](O)[C@H](O)[C@H]2O)CC[C@]2(C)[C@H]3C(=O)C=C4[C@@H]5C[C@@](C)(C(=O)O)CC[C@]5(C)CC[C@@]4(C)[C@]3(C)CC[C@@H]12 [18β-GAMG, glycyrrhetic acid 3-O-mono-β-D-glucuronide] | 33.6 | 8.39 | 21.6 | 69 | 25.02 ± 2.58 | 1.25 ± 0.19 | 34.6 | 27.8 ± 1.57 | 1.20 ± 0.35 | 38.4 | 21.05 ± 4.65 | 28.4
